Experimental data as given in ChEMBL document CHEMBL5050859, “Gpx4 inhibitors, pharmaceutical compositions thereof, and their use for treating gpx4-mediated diseases” (2021).

test system: Huh-7; assay: Antiproliferative activity against human Huh-7 cells after 24 hrs by Cell Titer Glo assay; assay type: functional, cell-based; conditions: Huh-7, 24 h

Point of comparison: `COC(=O)c1cccc(N(C(=O)CCl)C(C(=O)NCCc2ccccc2)c2ccc([N+](=O)[O-])cc2)c1` (centres undefined), EC50 100 nM. Against it:
- C#CC(=O)N(C1CCC1)C1(C(=O)NCc2ccccc2)CCCC(C(=O)OC)C1 (centres undefined) — 5-fold higher, 500 nM
- C#CC(=O)N(c1ccc(OC)c(Cl)c1)C(C(=O)NCc1ccccc1)c1ccc(N)cc1 (centres undefined) — not separable, ≤ 100 nM
- C#CC(=O)N(c1ccc(S(N)(=O)=O)cc1)C(C(=O)NCc1ccccc1)c1cccc(N)c1 (centres undefined) — higher, > 10000 nM
- C#CC(=O)N(c1ccc(OC)cc1)C(C(=O)NCc1ccccc1)c1ccc(N)cc1 (centres undefined) — not separable, ≤ 100 nM
- C#CC(=O)N(c1ccc(S(N)(=O)=O)cc1)C(C(=O)NCc1ccccc1)c1ccc(N)cc1 (centres undefined) — higher, > 10000 nM
- C#CC(=O)N(c1cccc(Cl)c1)C(C(=O)NCc1ccccc1)C1CCOCC1 (centres undefined) — 5-fold higher, 500 nM
- C#CC(=O)N(c1ccc(NC(C)=O)cc1)C(C(=O)NC(C)(C)C)c1ccc(N)cc1 (centres undefined) — 20-fold higher, 2000 nM
- C#CC(=O)N(c1ccc(OC)cc1)C(C(=O)NC(C)(C)C)c1ccc(N)cc1 (centres undefined) — 5-fold higher, 500 nM
- C#CC(=O)N(c1ccc(OC)cc1OC)C(C(=O)NCC(=O)OCC)c1cccs1 (centres undefined) — 5-fold higher, 500 nM
- C#CC(=O)N(c1cccc(C#N)c1)C(C(=O)NCc1ccccc1)c1cccc(N)c1 (centres undefined) — the same, 100 nM
- COc1ccc(N(C(=O)CCl)C(C(=O)NCCc2ccccc2)c2ccc(N)cc2)cc1Cl (centres undefined) — the same, 100 nM
- C#CC(=O)N(c1cccc(Cl)c1F)C(C(=O)NCc1ccccc1)c1ccccc1 (centres undefined) — the same, 100 nM
- C#CC(=O)N(c1cccc(OC)c1)C(C(=O)NC(C)(C)C)c1ccc(N)cc1 (centres undefined) — the same, 100 nM
- C#CC(=O)N(c1cccc(Cl)c1)C1(C(=O)NCS(=O)(=O)c2ccc(C)cc2)CCOCC1 — 5-fold higher, 500 nM
- C#CC(=O)N(Cc1cccc(O)c1)C1(C(=O)NCc2ccccc2)CCCC(C(=O)O)C1 (centres undefined) — higher, > 10000 nM
- C#CC(=O)N(c1cccn2cnnc12)C(C(=O)NCc1ccccc1)c1ccccc1 (centres undefined) — the same, 100 nM
- C#CC(=O)N(c1cccc(Cl)c1)C(C(=O)NCc1ccccc1C#N)c1ccccc1 (centres undefined) — not separable, ≤ 100 nM
- Cn1ncc2cc(N(C(=O)C3CO3)C3(C(=O)NCc4ccccc4)CCOCC3)ccc21 (centres undefined) — higher, > 10000 nM
- C#CC(=O)N(c1cccc(C(=O)OC)c1)C(C(=O)NCc1ccccc1)c1ccccc1 (centres undefined) — not separable, ≤ 100 nM
- C#CC(=O)N(c1cc2c(cc1I)OCO2)C(C(=O)NCc1ccccc1)c1ccccc1 (centres undefined) — not separable, ≤ 100 nM
- C#CC(=O)N(c1cccc(N)c1)C(C(=O)NCc1ccccc1)c1ccc(N)cc1 (centres undefined) — 5-fold higher, 500 nM
- C=CC(=O)N(c1ccc(OC)c(Cl)c1)C(C(=O)NCc1ccccc1)c1cccc(N)c1 (centres undefined) — higher, > 10000 nM
- C[Si](C)(C)C#CC(=O)N(c1cccc(Cl)c1)C1(C(=O)NCc2cccc(Cl)c2)CCOCC1 — not separable, ≤ 100 nM
- C#CC(=O)N(c1cccc(S(C)(=O)=O)c1)C(C(=O)NC(C)(C)C)c1ccc(N)cc1 (centres undefined) — 20-fold higher, 2000 nM
- C#CC(=O)N(c1ccc(O)cc1)C(C(=O)NCc1ccccc1)c1cccc(N)c1 (centres undefined) — 20-fold higher, 2000 nM
- C#CC(=O)N(c1ccc(S(C)(=O)=O)cc1)C(C(=O)NC(C)(C)C)c1ccc(N)cc1 (centres undefined) — 20-fold higher, 2000 nM
- C#CC(=O)N(c1cccc(OC)c1)C(C(=O)NCc1ccccc1)c1cccc(N)c1 (centres undefined) — the same, 100 nM
- C#CC(=O)N(c1cccc(S(C)(=O)=O)c1)C(C(=O)NCc1ccccc1)c1ccccc1 (centres undefined) — the same, 100 nM
- C#CC(=O)N(c1ccc2c(c1)OCO2)C(C(=O)NCc1ccccc1)c1ccccc1 (centres undefined) — not separable, ≤ 100 nM
- C#CC(=O)N(Cc1ccc(C(=O)OC)cc1)C(C)C(=O)NCc1ccccc1 (centres undefined) — the same, 100 nM
- CN(C)C/C=C/C(=O)N(c1ccc2c(cnn2C)c1)C1(C(=O)NCc2ccccc2)CCOCC1 — higher, > 10000 nM
- CC(=O)Nc1cccc(N(C(=O)CCl)C(C(=O)NCCc2ccccc2)c2ccc([N+](=O)[O-])cc2)c1 (centres undefined) — 20-fold higher, 2000 nM
- C#CC(=O)N(c1cccc(Cl)c1)C(C(=O)NC(C)(C)C)c1ccc(N)cc1 (centres undefined) — the same, 100 nM
- C#CC(=O)N(C1CCC(=O)N(C)C1)C(C(=O)NCc1ccccc1)c1ccccc1 (centres undefined) — 20-fold higher, 2000 nM
- O=C(NCCc1ccccc1)C(c1ccc([N+](=O)[O-])cc1)N(Cc1cccs1)C(=O)CCl (centres undefined) — 20-fold higher, 2000 nM
- O=C(C#CCO)N(c1cc(Cl)ccc1Cl)C1(C(=O)NCc2ccccc2)CCOCC1 — higher, > 10000 nM
- C#CC(=O)N(c1cccc(Cl)c1)C1(C(=O)NCc2ccccc2)CCCCC1 — not separable, ≤ 100 nM
- O=C(CCl)N(c1ccc2c(c1)OCO2)C1(C(=O)NCc2ccccc2)CCOCC1 — 20-fold higher, 2000 nM
- C#CC(=O)N(c1ccn2cnnc2c1)C1(C(=O)NCc2ccccc2)CCOCC1 — 5-fold higher, 500 nM
- C#CC(=O)N(c1cccc2c1OCO2)C(C(=O)NCc1ccccc1)c1ccccc1 (centres undefined) — the same, 100 nM
- C#CC(=O)N(c1cccc(Cl)c1)C1(C(=O)NCc2ccccc2)CCCC(C(=O)OC)C1 (centres undefined) — not separable, ≤ 100 nM
- C#CC(=O)N(c1cccc(Cl)c1F)C(C(=O)NCc1ccccc1)c1ccc(N)cc1 (centres undefined) — not separable, ≤ 100 nM
- C#CC(=O)N(c1ccc(NC(C)=O)cc1)C(C(=O)NC(C)(C)C)c1cccc(N)c1 (centres undefined) — 20-fold higher, 2000 nM
- Cn1ncc2cc(N(C(=O)CCl)C3(C(=O)NCCc4ccccc4)CCOCC3)ccc21 — 5-fold higher, 500 nM
- C#CC(=O)N(c1ccc2[nH]ncc2c1)C1(C(=O)NCc2ccccc2)CCOCC1 — the same, 100 nM
- C#CC(=O)N(c1cccc(Cl)c1)C(C(=O)NCc1ccc(F)cc1)c1ccccc1 (centres undefined) — not separable, ≤ 100 nM
- CC#CC(=O)N(c1ccc2c(cnn2C)c1)C1(C(=O)NCc2ccccc2)CCOCC1 — higher, > 10000 nM
- C#CC(=O)N(c1cccc(Cl)c1)C(C(=O)NCc1ccccc1)c1ccccc1 (centres undefined) — not separable, ≤ 100 nM
